According to ChEMBL document CHEMBL1201862, “PubChem BioAssay data set” (2004):
The source made the active and inactive calls.

Experiments:
Beta-lactamase [1] = biological target: Beta-lactamase (Pseudomonas aeruginosa, UniProt Q79MP6);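 also: biochemical dose-response test of metallo-beta-lactamase enzyme inhibition, read out by epi-absorbance; purified recombinant IMP-1 metallo-beta-lactamase with nitrocefin as substrate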
Beta-lactamase [2] = biological target: Beta-lactamase (Salmonella choleraesuis (strain SC-B67), UniProt Q5J463)
Insulin-degrading enzyme [3] = biological target: T1, Insulin-degrading enzyme (Homo sapiens, UniProt P14735); assay: activators of recombinant IDE enzyme, dose response, counter-screen for IDE activator project, biochemical, fluorescence polarization (AID 588681)
T1 sequence (P14735 whole entry): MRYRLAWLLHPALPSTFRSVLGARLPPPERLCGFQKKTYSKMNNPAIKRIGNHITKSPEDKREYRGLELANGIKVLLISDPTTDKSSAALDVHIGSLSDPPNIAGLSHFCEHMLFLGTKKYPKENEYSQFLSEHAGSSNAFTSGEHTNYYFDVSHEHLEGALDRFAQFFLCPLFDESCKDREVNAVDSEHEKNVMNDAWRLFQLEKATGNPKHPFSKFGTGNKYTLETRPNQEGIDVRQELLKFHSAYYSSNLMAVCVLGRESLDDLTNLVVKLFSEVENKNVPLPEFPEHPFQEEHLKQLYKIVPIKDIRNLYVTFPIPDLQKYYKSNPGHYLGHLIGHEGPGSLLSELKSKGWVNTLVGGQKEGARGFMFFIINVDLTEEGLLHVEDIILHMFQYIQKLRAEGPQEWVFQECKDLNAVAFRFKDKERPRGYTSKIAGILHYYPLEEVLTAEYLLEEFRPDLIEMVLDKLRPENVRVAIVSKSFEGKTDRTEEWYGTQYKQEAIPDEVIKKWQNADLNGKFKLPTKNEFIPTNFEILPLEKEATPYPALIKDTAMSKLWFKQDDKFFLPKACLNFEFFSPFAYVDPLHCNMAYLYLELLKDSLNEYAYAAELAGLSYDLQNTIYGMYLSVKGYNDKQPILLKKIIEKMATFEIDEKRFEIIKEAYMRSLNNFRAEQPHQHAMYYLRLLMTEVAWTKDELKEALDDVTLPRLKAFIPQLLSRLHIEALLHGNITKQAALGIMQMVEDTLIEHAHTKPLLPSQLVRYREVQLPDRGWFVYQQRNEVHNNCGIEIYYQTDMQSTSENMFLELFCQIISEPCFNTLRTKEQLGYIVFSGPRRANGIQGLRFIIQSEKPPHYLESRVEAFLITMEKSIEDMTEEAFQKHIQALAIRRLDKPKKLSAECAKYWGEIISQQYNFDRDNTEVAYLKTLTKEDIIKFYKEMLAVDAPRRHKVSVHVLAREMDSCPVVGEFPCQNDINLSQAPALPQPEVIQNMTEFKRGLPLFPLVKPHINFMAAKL

Insulin-degrading enzyme [4] = biological target: T1, Insulin-degrading enzyme; assay: activators of endogenous IDE in HEK cells, dose response, cell-based, fluorescence polarization (AID 588439); format: functional
HEK293 [5] = assay: HEK cell cytotoxicity by LDH release, dose response, cytotoxicity control for IDE activator project, fluorescence, HEK cells (AID 588440); format: functional, cell-based; conditions: Homo sapiens;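 also: cytotoxicity by LDH release measuring loss of membrane integrity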
HEK293 [6] = assay: optical interference in Abeta FP readout, dose response, artefact control for IDE activator project, biochemical, fluorescence polarization (AID 588442); format: functional, cell-based; conditions: Homo sapiens
[7] = biological target: Long-chain-fatty-acid--AMP ligase FadD28 (Mycobacterium tuberculosis, UniProt P9WQ59); assay: Fluorescence polarization aasay to screen for inhibitors that compete for the binding of FadD28 to a bisubstrate Measured in Biochemical System Using Plate Reader - 2147-01_Inhibitor_Dose_CherryPick_Activity.; format: functional, Mycobacterium tuberculosis H37Rv
Cytochrome P450 3A4 = Cytochrome P450 3A4 (Homo sapiens, UniProt P08684);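 also: CYP3A4 tested as one member of a cytochrome P450 panel screen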
Galanin receptor type 3 = Galanin receptor type 3 (Homo sapiens, UniProt O60755); assay: Fluorescence-based cell-based primary high throughput dose response assay to identify antagonists of the Galanin Receptor 3 (GalR3).; format: functional
cells = format: functional, cell-based; conditions: HEK-CNG
HEK293 [8] = assay: cells; conditions: Homo sapiens
HEK293 [9] = assay: cells; conditions: Homo sapiens; remark: listed apart in the source
[10] = biological target: Scavenger receptor class B member 1 (Mus musculus, UniProt Q61009); assay: inhibitors of SR-BI-mediated HDL uptake, dose response, cell-based, ldlA[mSR-BI] CHO, DiI fluorescence, dry powder, set 10 (AID 624029); format: functional
HeLa = assay: HeLa cell cytotoxicity, dose response, cytotoxicity control, ATP luminescence, cherry-pick samples (AID 687004); format: functional, cell-based; conditions: Homo sapiens
[11] = HEK293 cell cytotoxicity, dose response, cytotoxicity control, ATP luminescence, dry powder, Set6 (AID 743142); format: functional, cell-based

Scavenger receptor class B member 1, sequence (Q61009 whole entry): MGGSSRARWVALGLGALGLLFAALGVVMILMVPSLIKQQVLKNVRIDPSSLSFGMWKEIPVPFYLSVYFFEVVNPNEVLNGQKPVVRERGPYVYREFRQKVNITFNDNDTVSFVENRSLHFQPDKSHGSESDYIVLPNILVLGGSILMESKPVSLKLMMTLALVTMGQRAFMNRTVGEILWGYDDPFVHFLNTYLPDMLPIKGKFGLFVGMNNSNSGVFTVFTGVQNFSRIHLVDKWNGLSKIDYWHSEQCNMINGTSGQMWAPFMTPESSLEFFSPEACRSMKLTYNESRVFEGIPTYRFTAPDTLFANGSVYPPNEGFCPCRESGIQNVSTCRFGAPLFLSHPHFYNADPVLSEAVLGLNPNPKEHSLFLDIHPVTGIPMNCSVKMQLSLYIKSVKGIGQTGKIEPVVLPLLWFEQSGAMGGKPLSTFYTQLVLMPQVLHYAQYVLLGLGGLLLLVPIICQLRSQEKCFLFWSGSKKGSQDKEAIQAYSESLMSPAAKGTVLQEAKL
Galanin receptor type 3, sequence (O60755 whole entry): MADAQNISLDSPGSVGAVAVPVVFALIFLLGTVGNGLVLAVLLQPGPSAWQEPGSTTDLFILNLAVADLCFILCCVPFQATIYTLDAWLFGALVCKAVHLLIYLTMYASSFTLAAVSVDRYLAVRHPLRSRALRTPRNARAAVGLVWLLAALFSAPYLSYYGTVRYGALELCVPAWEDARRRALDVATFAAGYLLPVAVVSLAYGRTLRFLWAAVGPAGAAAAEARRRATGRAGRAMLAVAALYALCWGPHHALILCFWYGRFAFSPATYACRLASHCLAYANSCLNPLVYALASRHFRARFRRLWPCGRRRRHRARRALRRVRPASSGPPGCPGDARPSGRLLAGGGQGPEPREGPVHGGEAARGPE
Beta-lactamase (Pseudomonas aeruginosa, UniProt Q79MP6), sequence (Q79MP6 whole entry): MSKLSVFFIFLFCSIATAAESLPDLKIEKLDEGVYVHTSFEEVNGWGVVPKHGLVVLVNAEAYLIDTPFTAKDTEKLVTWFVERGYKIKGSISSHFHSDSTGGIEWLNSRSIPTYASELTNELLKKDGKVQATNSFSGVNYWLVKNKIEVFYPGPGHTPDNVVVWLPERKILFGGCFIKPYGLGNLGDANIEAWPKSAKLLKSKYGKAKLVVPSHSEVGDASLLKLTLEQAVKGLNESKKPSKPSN
Beta-lactamase (Salmonella choleraesuis (strain SC-B67), UniProt Q5J463), sequence (Q5J463 whole entry): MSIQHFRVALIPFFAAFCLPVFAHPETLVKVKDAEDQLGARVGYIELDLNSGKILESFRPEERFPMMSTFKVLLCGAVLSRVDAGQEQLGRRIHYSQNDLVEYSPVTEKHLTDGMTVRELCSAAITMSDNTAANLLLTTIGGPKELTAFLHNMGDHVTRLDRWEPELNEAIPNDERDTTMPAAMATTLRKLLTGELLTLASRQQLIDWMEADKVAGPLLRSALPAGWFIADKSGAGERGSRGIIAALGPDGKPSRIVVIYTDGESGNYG
Long-chain-fatty-acid--AMP ligase FadD28, sequence (P9WQ59 whole entry): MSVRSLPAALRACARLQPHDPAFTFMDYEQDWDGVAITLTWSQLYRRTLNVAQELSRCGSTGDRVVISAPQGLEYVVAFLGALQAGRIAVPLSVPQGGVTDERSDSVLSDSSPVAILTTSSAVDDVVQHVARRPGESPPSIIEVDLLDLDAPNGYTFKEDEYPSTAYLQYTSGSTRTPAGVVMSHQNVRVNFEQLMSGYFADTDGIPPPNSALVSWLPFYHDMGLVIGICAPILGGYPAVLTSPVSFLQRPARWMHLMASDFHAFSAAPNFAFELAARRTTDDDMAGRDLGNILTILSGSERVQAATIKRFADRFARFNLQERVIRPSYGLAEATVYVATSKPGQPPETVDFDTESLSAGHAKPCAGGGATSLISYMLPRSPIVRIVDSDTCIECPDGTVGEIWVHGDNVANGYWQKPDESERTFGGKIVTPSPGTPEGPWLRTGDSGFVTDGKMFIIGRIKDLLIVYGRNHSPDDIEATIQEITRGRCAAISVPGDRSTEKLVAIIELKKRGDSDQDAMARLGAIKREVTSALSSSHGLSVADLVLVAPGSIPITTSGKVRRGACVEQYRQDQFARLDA
Cytochrome P450 3A4, sequence (P08684 whole entry): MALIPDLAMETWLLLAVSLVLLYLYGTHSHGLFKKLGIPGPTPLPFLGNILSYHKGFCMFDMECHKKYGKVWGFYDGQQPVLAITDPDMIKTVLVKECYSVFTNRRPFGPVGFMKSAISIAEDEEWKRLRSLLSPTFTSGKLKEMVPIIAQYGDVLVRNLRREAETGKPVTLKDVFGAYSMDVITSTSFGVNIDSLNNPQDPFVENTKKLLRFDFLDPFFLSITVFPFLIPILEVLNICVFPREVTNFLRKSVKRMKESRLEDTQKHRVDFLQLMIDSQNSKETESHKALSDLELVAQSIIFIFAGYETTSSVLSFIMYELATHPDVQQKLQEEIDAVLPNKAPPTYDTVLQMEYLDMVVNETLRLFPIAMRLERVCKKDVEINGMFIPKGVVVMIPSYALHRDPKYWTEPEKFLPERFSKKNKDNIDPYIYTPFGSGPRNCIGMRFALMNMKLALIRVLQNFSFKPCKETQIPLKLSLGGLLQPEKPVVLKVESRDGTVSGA

## N#CC(C#N)=C1C=C2C=C(N3CCOCC3)CCC2CC1 (stereo not given)
Beta-lactamase [1]
  IC50: 6.86 µM (active)
Beta-lactamase [2]
  IC50: 1.49 µM (active)
Insulin-degrading enzyme [3]
  EC50: > 54.7 µM (inactive)
Insulin-degrading enzyme [4]
  EC50: > 54.7 µM (inactive)
HEK293 [5]
  IC50: > 89.1 µM (inactive)
HEK293 [6]
  EC50: > 54.7 µM (inactive)

## Cc1cccc(NC(=O)Cn2c(=O)oc3ccccc32)c1
[7]
  AC50: 5.47 µM (active)
Cytochrome P450 3A4
  AC50: 25.1 µM (inconclusive)

## CCc1nc2sc(C#N)c(N)c2c2c1CCCC2
Galanin receptor type 3
  IC50: > 3.32 µM (active)
cells
  EC50: > 29.9 µM (inactive)
HEK293 [8]
  EC50: > 59.6 µM (inactive)
HEK293 [9]
  EC50: > 59.6 µM (inactive)

## CC(C)NC(=O)Nc1ccc2c(c1)C(=O)N([C@H](C)CO)C[C@@H](C)[C@@H](CN(C)S(=O)(=O)c1ccc(Cl)cc1)O2
[10]
  AC50: 39.9 µM (active)

## C[C@@H]1CN([C@@H](C)CO)C(=O)Cc2cc(NC(=O)Nc3cccc4ccccc34)ccc2O[C@@H]1CN(C)S(=O)(=O)c1cccs1
HeLa
  AC50: 32.3 µM (active)

## O=C(CCNC(=O)c1ccc(F)cc1)N[C@@H]1CCCc2ccccc21
[11]
  AC50: 16.5 µM (active)
